In patent US8829197B2, “Salts and polymorphs of desazadesferrithiocin polyether analogues as metal chelation agents” (FerroKin Biosciences, Inc., priority 2008, dated 2014):
Where a name gives a salt, the structure may show the parent alone. Read-outs that look alike come from different tables or passages of the source. Values belong to the compound of their own block, whether it stands above or below them.

Tests used:
Format in all cases: physicochemical
[1] = Approximate solubility (aliquots of solvent, visual inspection)
Experimental: Weighed samples were treated with aliquots of test solvents at room temperature. Samples were typically sonicated between additions to facilitate dissolution. Complete dissolution of the test material in each solvent was determined by visual inspection. Solubility was estimated based on the total volume of solvent used to provide complete dissolution. The actual solubility may be greater than the value calculated due to the incremental addition of solvent and kinetics of dissolution of the material. […] The solubility is expressed as […] if dissolution occurred after the addition of first aliquot.
Approximate solubilities are calculated based on the total solvent used to give a solution based on visual inspection. Small aliquots of solvent are added to a weighed sample with agitation. Actual solubilities may be greater because of the volume of the solvent portions utilized or a slow rate of dissolution. Solubilities are reported to the nearest mg/mL. Simulated gastric fluid (SGF) was prepared according to the 2008 USP vol. 1, p 817 except without pepsin.
Approximate solubilities are calculated based on the total solvent used to give a solution based on visual inspection. Small aliquots of solvent are added to a weighed sample with agitation. Actual solubilities may be greater because of the volume of the solvent portions utilized or a slow rate of dissolution.

[2] = Relative humidity stress / physical stability on exposure and storage; details: for hygroscopicity (in words): judged from 75% RH exposure; for physical change when exposed to 75% RH: 75% RH for 3 days
Source text: Following isolation, salts were then characterized by one or more standard techniques including but not limited to x-ray powder diffraction (XRPD), single crystal x-ray diffraction (SC-XRD or XRD), nuclear magnetic resonance (NMR), solubility analysis, and stability testing by moisture sorption/desorption stress analysis and differential scanning calorimetry (DSC).

[3] = Moisture sorption/desorption (DVS) analysis; details: for weight loss on desorption: between ~95% and ~5% RH; for total weight gain (water uptake): relative humidity from ~5% to ~95% RH; for hygroscopicity (in words): from DVS data; for weight loss during desorption: desorption step, 95% to 5% RH
Experimental: Moisture sorption/desorption (DVS) data were collected on a VTI SGA-100 Vapor Sorption Analyzer. Sorption and desorption data were collected over a range of 5% to 95% relative humidity (RH) at 10% RH intervals under a nitrogen purge. Samples were not dried prior to analysis. Equilibrium criteria used for analysis were less than 0.0100% weight change in 5 minutes, with a maximum equilibration time of 3 hours if the weight criterion was not met. Data were not corrected for the initial moisture content of the samples. NaCl and PVP were used as calibration standards.

[4] = Water, salts of (S)-4′-(OH)-DADFT-PE (Table 16)
[5] = water, salts of (S)-4′-(OH)-DADFT-PE
[6] = listed as Magnesium Salt of (S)-4′-(Oh)-DADFT-PE
[7] = listed as magnesium salt candidate
[8] = listed as N-methyl-D-glucamine (NMG) Salt of (S)-4′-(OH)-DADFT-PE
[9] = listed as Tromethamine Salt of (S)-4′-(OH)-DADFT-PE
[10] = sorption step from 5% to 95% RH
[11] = SGF (simulated gastric fluid, without pepsin), Table 14
[12] = Water, salts of (S)-3′-(OH)-DADFT-PE (Table 14)
[13] = water, salts of (S)-3′-(OH)-DADFT-PE

solubility ([1]; 0.1N HCl in water, simulated gastric fluid, thermodynamic from solid, 0.1N HCl in Water, Table 16, read-out: Solubility): 3 mg/mL | solubility [1, 4]: <0.5 mg/mL | aqueous solubility (in words) [1, 5]: negligible | deliquescence upon ~75% RH stress [2]: No apparent deliquescence
Compound: COCCOCCOCCOc1ccc(C2=N[C@@](C)(C(=O)O)CS2)c(O)c1 [Calcium A]

solubility [1, 4]: <0.5 mg/mL | aqueous solubility (in words) [1, 5]: negligible | appearance upon ~75% RH stress [2]: became oily | deliquescence upon ~75% RH stress ([2]; listed as Lysine salt candidate): No apparent deliquescence
Compound: COCCOCCOCCOc1ccc(C2=N[C@@](C)(C(=O)O)CS2)c(O)c1 [Lysine A, 2,6-diammoniohexanoate (S)-2-(2-hydroxy-4-(2-(2-(2-methoxyethoxy)ethoxy)ethoxy)phenyl)-4-methyl-4,5-dihydrothiazole-4-carboxylate]

additional weight gain above ~85% RH [3, 6]: ~20.2 wt % | weight gain below ~85% RH [3, 6]: ~22.0 wt % | weight loss on desorption [3, 6]: ~41.2 wt % | total weight gain (water uptake) [3, 6]: ~42.7 wt % | total weight gain (water uptake) [3, 7]: ~42.7 wt % | weight loss upon equilibration at ~5% RH [3, 6]: ~0.7 wt % | solubility [1, 4]: 60 mg/mL | aqueous solubility ([1]; water, salts of (S)-4′-(OH)-DADFT-PE, listed as magnesium salt candidate): ~60 mg/mL | deliquescence upon ~75% RH stress [2, 7]: No apparent deliquescence
Compound: COCCOCCOCCOc1ccc(C2=N[C@@](C)(C(=O)O)CS2)c(O)c1 [Magnesium A]

solubility ([1]; simulated gastric fluid (SGF) without pepsin, simulated gastric fluid, thermodynamic from solid, SGF (simulated gastric fluid, without pepsin), Table 14, read-out: Approximate Solubility): ≥ 50 mg/mL | solubility ([1]; water, thermodynamic from solid, Water, salts of (S)-3′-(OH)-DADFT-PE (Table 14), read-out: Approximate Solubility): ≥ 48 mg/mL | solubility ([1]; water, thermodynamic from solid, water, salts of (S)-3′-(OH)-DADFT-PE, read-out: aqueous solubility): ≥ 48 mg/mL | XRPD pattern after exposure to 75% RH ([2]; 75% RH for 8 days): remained unchanged | deliquescence when exposed to 75% RH ([2]; 75% RH for 8 days): did not deliquesce | hygroscopicity (in words) [2]: non-hygroscopic
Compound: COCCOCCOCCOc1cccc(C2=N[C@@](C)(C(=O)O)CS2)c1O [Magnesium salt of (S)-3′-(OH)-DADFT-PE, magnesium (S)-2-(2-hydroxy-3-(2-(2-(2-methoxyethoxy)ethoxy)ethoxy)phenyl)-4-methyl-4,5-dihydrothiazole-4-carboxylate hydroxide]

additional weight gain above ~85% RH [3, 8]: ~27.0 wt % | weight gain below ~85% RH [3, 8]: ~34.7 wt % | weight loss on desorption [3, 8]: ~60.6 wt % | total weight gain (water uptake) [3, 8]: ~61.7 wt % | total weight gain (water uptake) ([3]; listed as NMG salt candidate): ~61.7 wt % | weight loss upon equilibration at ~5% RH [3, 8]: ~0.5 wt % | solubility [1, 4]: 60 mg/mL | aqueous solubility ([1]; water, salts of (S)-4′-(OH)-DADFT-PE, listed as NMG salt candidate): ~60 mg/mL | appearance upon ~75% RH stress [2]: became oily | deliquescence upon ~75% RH stress ([2]; listed as NMG salt candidate): No apparent deliquescence
Compound: COCCOCCOCCOc1ccc(C2=N[C@@](C)(C(=O)O)CS2)c(O)c1 [NMG A, 2,3,4,5,6-pentahydroxy-N-methylhexan-1-aminium (S)-2-(2-hydroxy-4-(2-(2-(2-methoxyethoxy)ethoxy)ethoxy)phenyl)-4-methyl-4,5-dihydrothiazole-4-carboxylate]

physical change when exposed to 75% RH [2]: remained physically unchanged | hygroscopicity (in words) [2]: non-hygroscopic | exposure to ambient air ([2]; lyophilized solid, ambient air (~57% RH) for a few minutes): solids deliquesced
Compound: COCCOCCOCCOc1cccc(C2=N[C@@](C)(C(=O)[O-])CS2)c1O.[Na+] [Sodium salt of (S)-3′-(OH)-DADFT-PE]

weight gain above ~65% RH ([3]; above ~65% RH): ~50.3 wt % | weight gain (water uptake) below ~65% RH ([3]; below ~65% RH): ~1.5 wt % | weight loss on desorption [3, 9]: ~48.4 wt % | total weight gain (water uptake) [3, 9]: ~51.8 wt % | weight loss upon equilibration at ~5% RH [3, 9]: ~0.7 wt % | aqueous solubility ([1]; water, salts of (S)-4′-(OH)-DADFT-PE, listed as Tromethamine salt candidate): > 124 mg/mL | appearance upon ~75% RH stress at elevated temperature ([2]; one day relative humidity stress, ~75% RH, elevated temperature): become oily | deliquescence upon ~75% RH stress ([2]; listed as Tromethamine salt candidate): no apparent deliquescence
Compound: COCCOCCOCCOc1ccc(C2=N[C@@](C)(C(=O)O)CS2)c(O)c1 [Tromethamine A, 1,3-dihydroxy-2-(hydroxymethyl)propan-2-aminium (S)-2-(2-hydroxy-4-(2-(2-(2-methoxyethoxy)ethoxy)ethoxy)phenyl)-4-methyl-4,5-dihydrothiazole-4-carboxylate]
hygroscopicity (in words) [3]: lower hygroscopicity compared to magnesium and NMG salt candidates

weight loss upon equilibrium at 5% RH ([3]; 5% RH): 10.8% | additional weight gain during sorption ([3]; above 65% RH, equilibrium weight not reached): 21.2% | weight loss during desorption [3]: 26.6% | weight gain during sorption ([3]; from 5% to 65% RH): 5.7% | hygroscopicity (in words) [3]: hygroscopic
Compound: COCCOCCOCCOc1cccc(C2=N[C@@](C)(C(=O)O)CS2)c1O [magnesium salt Form B, magnesium (S)-2-(2-hydroxy-3-(2-(2-(2-methoxyethoxy)ethoxy)ethoxy)phenyl)-4-methyl-4,5-dihydrothiazole-4-carboxylate hydroxide]

physical change when exposed to 75% RH [2]: deliquesced | hygroscopicity (in words) [2]: hygroscopic
Compound: C1CNCCN1.COCCOCCOCCOc1cccc(C2=N[C@@](C)(C(=O)O)CS2)c1O [piperazine salt of (S)-3′-(OH)-DADFT-PE]

weight loss during desorption [3]: 63.4% | hygroscopicity (in words) [3]: extremely hygroscopic | average percentage weight loss at plateau of absorption curve ([3]; plateau between 45 and 65% RH): 8.7% | weight gain during sorption [3, 10]: 67.7% | Approximate Solubility ([1]; ACN, Table 14): >6 mg/mL | Approximate Solubility ([1]; EtOAc/H2O, Table 14): >70 mg/mL | Approximate Solubility ([1]; IPA, Table 14): >68 mg/mL | Approximate Solubility ([1]; MEK, Table 14): <7 mg/mL | Approximate Solubility [1, 11]: ≧230 mg/mL | Approximate Solubility ([1]; THF, Table 14): ~ 5 mg/mL | Approximate Solubility [1, 12]: ≧48 mg/mL | aqueous solubility [1, 13]: ≥ 48 mg/mL | form obtained on exposure to 53% RH ([2]; 53% RH for 11 days at room temperature): Form B | physical change when exposed to 75% RH [2]: Complete deliquesce
Compound: COCCOCCOCCOc1cccc(C2=N[C@@](C)(C(=O)[O-])CS2)c1O.[K+] [potassium salt Form A, potassium (S)-3′-desazadesferrithiocin polyether]

weight loss during desorption [3]: ~66% | hygroscopicity (in words) [3]: extremely hygroscopic | average percentage weight gain at plateau of absorption curve ([3]; plateau between 35 and 65% RH): ~8% | weight gain during sorption [3, 10]: ~70% | form conversion on exposure to 40° C. ([2]; 40° C. for 6 days): desolvated into a mixture with Form A | form conversion on exposure to P2O5 ([2]; P2O5 for 6 days): converted to a new form, namely Form C | physical stability of the form (in words) ([2]; low humidity (P2O5) or elevated temperature (40° C.)): unstable
Compound: COCCOCCOCCOc1cccc(C2=N[C@@](C)(C(=O)[O-])CS2)c1O.[K+] [potassium salt Form B, potassium (S)-3′-desazadesferrithiocin polyether]

Approximate Solubility [1, 11]: ≧39 mg/mL | Approximate Solubility [1, 12]: <1 mg/mL | aqueous solubility [1, 13]: ~1 mg/mL | physical change when exposed to 75% RH [2]: remained physically unchanged | hygroscopicity (in words) [2]: non-hygroscopic
Compound: zinc (S)-3′-desazadesferrithiocin polyether [Zinc salt of (S)-3′-(OH)-DADFT-PE]
